Reference: the Kinase Knowledgebase extract (Sharma et al. 2016)

Each molecule was assayed against PIK3CD (Human) (UniProt O00329) (assay: Assessment of PIK3CD Kinase Activity (Scintillation Proximity Assay)).
Sequence of PIK3CD (Human) (O00329 whole entry, looked up): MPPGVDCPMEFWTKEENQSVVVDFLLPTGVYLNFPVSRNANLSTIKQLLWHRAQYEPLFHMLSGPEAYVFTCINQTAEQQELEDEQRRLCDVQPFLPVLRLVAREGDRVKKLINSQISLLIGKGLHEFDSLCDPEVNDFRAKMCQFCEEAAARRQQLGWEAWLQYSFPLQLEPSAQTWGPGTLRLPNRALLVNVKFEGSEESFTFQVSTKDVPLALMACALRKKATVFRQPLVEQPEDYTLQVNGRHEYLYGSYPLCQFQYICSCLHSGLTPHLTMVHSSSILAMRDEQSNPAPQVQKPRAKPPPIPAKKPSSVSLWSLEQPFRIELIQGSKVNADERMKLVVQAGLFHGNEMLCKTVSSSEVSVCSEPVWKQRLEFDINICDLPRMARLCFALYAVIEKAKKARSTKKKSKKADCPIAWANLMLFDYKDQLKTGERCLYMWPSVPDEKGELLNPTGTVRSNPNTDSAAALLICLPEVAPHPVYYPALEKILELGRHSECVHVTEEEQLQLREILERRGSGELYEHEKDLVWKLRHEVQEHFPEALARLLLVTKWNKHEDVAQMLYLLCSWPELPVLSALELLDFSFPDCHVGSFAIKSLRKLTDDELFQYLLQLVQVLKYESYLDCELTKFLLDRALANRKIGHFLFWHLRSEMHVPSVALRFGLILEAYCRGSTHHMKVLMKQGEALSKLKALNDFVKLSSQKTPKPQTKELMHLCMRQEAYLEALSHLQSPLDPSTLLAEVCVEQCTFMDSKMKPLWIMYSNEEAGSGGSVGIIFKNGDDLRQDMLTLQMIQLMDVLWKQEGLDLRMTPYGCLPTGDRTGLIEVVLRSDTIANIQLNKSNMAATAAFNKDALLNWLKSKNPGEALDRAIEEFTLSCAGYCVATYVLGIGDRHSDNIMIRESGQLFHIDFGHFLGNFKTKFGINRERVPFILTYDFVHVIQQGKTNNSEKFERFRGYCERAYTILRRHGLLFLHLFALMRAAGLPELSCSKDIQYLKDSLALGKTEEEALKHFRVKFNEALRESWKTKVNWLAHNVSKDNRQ

| SMILES | IC50 |
| --- | --- |
| COc1c(C(C)n2ncc3c(N)ncnc32)cc(Cl)c(C)c1-c1ccnc(C(=O)N(C)C)c1 (configuration not stated) | 0.01 to 0.05 µM |
| COc1c(C(C)n2nc(C)c3c(N)ncnc32)cc(Cl)c(C)c1C1CN([C@H](C)C(=O)N(C)C)C1 (some centres not stated) | ≤ 0.01 µM |
| COc1c(C(C)n2nc(C)c3c(N)ncnc32)cc(Cl)c(Cl)c1C1CN(CC(C)(C)O)C1 (configuration not stated) | ≤ 0.01 µM |
| CCOc1c(C(C)n2nc(C)c3c(N)ncnc32)cc(Cl)c(C#N)c1C1CN(C(N)=O)C1 (configuration not stated) | ≤ 0.01 µM |
| COc1c(C(C)n2nc(C)c3c(N)ncnc32)cc(Cl)c(C)c1-c1cnn(C2CCN(C)CC2)c1 (configuration not stated) | ≤ 0.01 µM |
| Cc1c(Cl)cc(C(C)n2nc(C)c3c(N)ncnc32)c(OCC2CC2)c1-c1ccc(C(=O)N(C)C)nc1 (configuration not stated) | ≤ 0.01 µM |
| COc1c(C(C)n2nc(C)c3c(N)ncnc32)cc(Cl)c(C)c1C1CN(C2COC2)C1 (configuration not stated) | ≤ 0.01 µM |
| COc1c(C(C)n2nc(C)c3c(N)ncnc32)cc(Cl)c(C)c1C1CN(C(C)C#N)C1 (configuration not stated) | ≤ 0.01 µM |
| COc1c(C(C)n2nc(C)c3c(N)ncnc32)cc(Cl)c(C)c1-c1cnn(C2CCN(C(C)=O)CC2)c1 (configuration not stated) | ≤ 0.01 µM |
| CCNC(=O)c1c(C)c(Cl)cc(C(C)n2nc(-c3cn[nH]c3)c3c(N)ncnc32)c1OCC (configuration not stated) | ≤ 0.01 µM |
| CCOc1c(C(C)n2nc(C)c3c(N)ncnc32)cc(Cl)c(C)c1C1CNC(=O)C1 (configuration not stated) | ≤ 0.01 µM |
| CCOc1c(C(C)n2nc(-c3cc[nH]n3)c3c(N)ncnc32)cc(Cl)c(C)c1-c1ccc(C(=O)N(C)C)nc1 (configuration not stated) | ≤ 0.01 µM |
| CNC(=O)c1cc(-c2c(C)c(Cl)cc(C(C)n3nc(C)c4c(N)ncnc43)c2OC)ccn1 (configuration not stated) | ≤ 0.01 µM |
| CCOc1c(C(C)n2nc(C)c3c(N)ncnc32)cc(Cl)c(C#N)c1-c1cncc(C(=O)NC)c1 (configuration not stated) | ≤ 0.01 µM |
| COc1c(C(C)n2nc(C)c3c(N)ncnc32)cc(C)c(C#N)c1C1CN(CC(C)(C)O)C1 (configuration not stated) | ≤ 0.01 µM |
| CCOc1c(C(C)n2nc(C)c3c(N)ncnc32)cc(Cl)c(C#N)c1C1CNC1 (configuration not stated) | ≤ 0.01 µM |
| CCOc1c(C(C)n2nc(C)c3c(N)ncnc32)cc(Cl)c(C)c1-c1cnn(CC(=O)NC)c1 (configuration not stated) | ≤ 0.01 µM |
| COc1c(C(C)n2nc(C)c3c(N)ncnc32)cc(Cl)c(C)c1C1CN(CC(F)(F)F)C1 (configuration not stated) | ≤ 0.01 µM |
| COc1c(C(C)n2nc(C(F)F)c3c(N)ncnc32)cc(C#N)c(F)c1C1CN(C[C@H](C)O)C1 (some centres not stated) | ≤ 0.01 µM |
| COc1c(C(C)n2nc(C)c3c(N)ncnc32)cc(Cl)c(C)c1C1CN([C@H](C)CO)C1 (some centres not stated) | ≤ 0.01 µM |
| COc1c(C(C)n2cc(C)c(=O)c3c(N)ncnc32)cc(Cl)c(C)c1-c1ccc(C(=O)N(C)C)nc1 (configuration not stated) | ≤ 0.01 µM |
| COc1c(C(C)n2nc(C)c3c(N)ncnc32)cc(Cl)c(C#N)c1C1CN(C2CCC2)C1 (configuration not stated) | ≤ 0.01 µM |

| SMILES | IC50 |
| --- | --- |
| COc1c(C(C)n2nc(C(F)F)c3c(N)ncnc32)cc(C#N)c(C)c1C1CN(C[C@@H](C)O)C1 (some centres not stated) | ≤ 0.01 µM |
| COc1c(C(C)n2nc(C)c3c(N)ncnc32)cc(Cl)c(C)c1C1CN(C2CCOC2)C1 (configuration not stated) | ≤ 0.01 µM |
| COc1c(C(C)n2nc(C)c3c(N)ncnc32)cc(Cl)c(C#N)c1C1CN(CC2CCOCC2)C1 (configuration not stated) | ≤ 0.01 µM |
| CCOc1c(C(C)n2nc(C)c3c(N)ncnc32)cc(Cl)c(C#N)c1C1CN(S(=O)(=O)C(C)C)C1 (configuration not stated) | ≤ 0.01 µM |
| CCOc1c(C(C)n2nc(C)c3c(N)ncnc32)cc(C)c(C#N)c1-c1cnn(C)c1 (configuration not stated) | ≤ 0.01 µM |
| COc1c(C(C)n2nc(C)c3c(N)ncnc32)cc(Cl)c(C)c1-c1cncnc1 (configuration not stated) | ≤ 0.01 µM |
| COC(=O)N1CC(c2c(C#N)c(Cl)cc(C(C)n3nc(C)c4c(N)ncnc43)c2OC)C1 (configuration not stated) | ≤ 0.01 µM |
| CCOc1c(C(C)n2nc(C)c3c(N)ncnc32)cc(Cl)c(C)c1C1CN(C(C)C)C1 (configuration not stated) | ≤ 0.01 µM |
| CCOc1c(C(C)n2nc(C)c3c(N)ncnc32)cc(Cl)c(C#N)c1C1CN(C(=O)C(C)(C)C)C1 (configuration not stated) | ≤ 0.01 µM |
| CCNC(=O)c1c(C)c(Cl)cc(C(C)n2nc(-c3ccc4nc(N)sc4c3)c3c(N)ncnc32)c1OCC (configuration not stated) | ≤ 0.01 µM |
| CCOc1c(C(C)n2nc(C(F)F)c3c(N)ncnc32)cc(Cl)c(F)c1C1CN(C(C)C)C1 (configuration not stated) | ≤ 0.01 µM |
| CCNC(=O)N1CC(c2c(C#N)c(Cl)cc(C(C)n3nc(C)c4c(N)ncnc43)c2OCC)C1 (configuration not stated) | ≤ 0.01 µM |
| CNC(=O)CCc1c(C)c(Cl)cc(C(C)n2nc(C)c3c(N)ncnc32)c1OC (configuration not stated) | ≤ 0.01 µM |
| CCOc1c(C(C)n2nc(C)c3c(N)ncnc32)cc(Cl)c(C#N)c1-c1ccc(-c2nnn(C)n2)nc1 (configuration not stated) | ≤ 0.01 µM |
| COc1c(C(C)n2nc(C)c3c(N)ncnc32)cc(Cl)c(C)c1C1CN(C[C@@H](O)C(F)(F)F)C1 (some centres not stated) | ≤ 0.01 µM |
| CCOc1c(C(C)n2nc(C)c3c(N)ncnc32)cc(Cl)c(C#N)c1-c1ccnc(C(=O)N(C)C)c1 (configuration not stated) | ≤ 0.01 µM |
| COc1c(C(C)n2nc(C)c3c(N)ncnc32)cc(Cl)c(C#N)c1C1CN(C[C@H](C)O)C1 (some centres not stated) | ≤ 0.01 µM |
| COc1c(C(C)n2nc(C(F)F)c3c(N)ncnc32)cc(C#N)c(C)c1C1CN(CC(F)(F)F)C1 (configuration not stated) | ≤ 0.01 µM |
| COc1c(C(C)n2nc(C(F)F)c3c(N)ncnc32)cc(C#N)c(C)c1C1CN(C[C@H](C)O)C1 (some centres not stated) | ≤ 0.01 µM |
| COc1c(C(C)n2nc(C)c3c(N)ncnc32)cc(Cl)c(Cl)c1C1CN(C[C@H](C)O)C1 (some centres not stated) | ≤ 0.01 µM |
| COc1c(C(C)n2nc(C)c3c(N)ncnc32)cc(C#N)c(C)c1-c1cnn(C)c1 (configuration not stated) | 0.01 to 0.05 µM |
| COc1c(C(C)n2ccc(=O)c3c(N)ncnc32)cc(Cl)c(C)c1-c1cncc(S(C)(=O)=O)c1 (configuration not stated) | ≤ 0.01 µM |

| SMILES | IC50 |
| --- | --- |
| CCOc1c(C(C)n2nc(-c3cncc(C(=O)N(C)C)c3)c3c(N)ncnc32)cc(Cl)c(C)c1-c1ccc(C(=O)N(C)C)nc1 (configuration not stated) | ≤ 0.01 µM |
| COc1c(C(C)n2nc(C(F)F)c3c(N)ncnc32)cc(C#N)c(C)c1C1CN(CC(F)F)C1 (configuration not stated) | ≤ 0.01 µM |
| CCOc1c(C(C)n2nc(C)c3c(N)ncnc32)cc(Cl)c(C)c1-c1cnn(CC(=O)N(C)C)c1 (configuration not stated) | ≤ 0.01 µM |
| COc1c(C(C)n2ccc(=O)c3c(N)ncnc32)cc(Cl)c(C)c1-c1cccc(C(=O)N(C)C)c1 (configuration not stated) | ≤ 0.01 µM |
| CCOc1c(C(C)n2nc(C)c3c(N)ncnc32)cc(Cl)c(C)c1-c1ccc(C(=O)NC)nc1 (configuration not stated) | ≤ 0.01 µM |
| COc1c(C(C)n2nc(C)c3c(N)ncnc32)cc(Cl)c(C#N)c1C1CN(C(N)=O)C1 (configuration not stated) | ≤ 0.01 µM |
| CCOc1c(C(C)n2nc(C)c3c(N)ncnc32)cc(Cl)c(C)c1-c1ccnc(C(=O)N(C)CCO)c1 (configuration not stated) | ≤ 0.01 µM |
| COc1c(C(C)n2nc(C(F)F)c3c(N)ncnc32)cc(C#N)c(C)c1C1CN(CCO)C1 (configuration not stated) | ≤ 0.01 µM |
| COc1c(C(C)n2nc(C(F)F)c3c(N)ncnc32)cc(C#N)c(C)c1C1CN(C(C)C)C1 (configuration not stated) | ≤ 0.01 µM |
| COc1c(C(C)n2nc(C)c3c(N)ncnc32)cc(Cl)c(C)c1-c1ccnc(N2CC(O)C2)c1 (configuration not stated) | ≤ 0.01 µM |
| CCOc1c(C(C)n2nc(C)c3c(N)ncnc32)cc(C)c(C#N)c1C1CN(C(C)C)C1 (configuration not stated) | ≤ 0.01 µM |
| CNC(=O)c1ccc(-c2c(C)c(Cl)cc(C(C)n3nc(C)c4c(N)ncnc43)c2OC)cn1 (configuration not stated) | ≤ 0.01 µM |
| CCS(=O)(=O)N1CC(c2c(C#N)c(Cl)cc(C(C)n3nc(C)c4c(N)ncnc43)c2OC)C1 (configuration not stated) | ≤ 0.01 µM |
| COc1c(C(C)n2nc(C)c3c(N)ncnc32)cc(Cl)c(C)c1C1CNC(=O)CO1 (configuration not stated) | ≤ 0.01 µM |
| CNC(=O)c1ccc(-c2c(C)c(Cl)cc(C(C)n3nc(C)c4c(N)ncnc43)c2OC)cc1F (configuration not stated) | ≤ 0.01 µM |
| CCOc1c(C(C)n2nc(C(F)F)c3c(N)ncnc32)cc(Cl)c(F)c1C1CN(C[C@@H](C)O)C1 (some centres not stated) | ≤ 0.01 µM |
| CCOc1c(C(C)n2cc(C)c3c(N)ncnc32)cc(Cl)c(C#N)c1C1CN(C(C)C)C1 (configuration not stated) | ≤ 0.01 µM |
| CCOc1c(C(C)n2nc(C)c3c(N)ncnc32)cc(Cl)c(C#N)c1-c1ccc(C(=O)N(C)C)nc1 (configuration not stated) | ≤ 0.01 µM |
| CCOc1c(C(C)n2nc(C)c3c(N)ncnc32)cc(Cl)c(C#N)c1C1CNC(=O)O1 (configuration not stated) | ≤ 0.01 µM |
| CCOc1c(C(C)n2nc(CNC)c3c(N)ncnc32)cc(Cl)c(C)c1-c1ccc(C(=O)N(C)C)nc1 (configuration not stated) | 0.05 to 0.2 µM |
| CCOc1c(C(C)n2nc(C)c3c(N)ncnc32)cc(C)c(C#N)c1-c1ccnc(S(C)(=O)=O)c1 (configuration not stated) | ≤ 0.01 µM |
| CCOc1c(C(C)n2nc(CN(C)C)c3c(N)ncnc32)cc(Cl)c(C)c1-c1ccc(C(=O)N(C)C)nc1 (configuration not stated) | 0.05 to 0.2 µM |

| SMILES | IC50 |
| --- | --- |
| CCOc1c(C(C)n2nc(C)c3c(N)ncnc32)cc(Cl)c(C)c1C1CN(CCO)C1 (configuration not stated) | ≤ 0.01 µM |
| COc1c(C(C)n2nc(C)c3c(N)ncnc32)cc(Cl)c(C)c1C1CN(C(=O)c2cn[nH]c2)C1 (configuration not stated) | ≤ 0.01 µM |
| CCOc1c(C(C)n2nc(C)c3c(N)ncnc32)cc(Cl)c(C#N)c1C1CN(C(C)(C)C(=O)NC)C1 (configuration not stated) | ≤ 0.01 µM |
| CCOc1c(C(C)n2nc(C)c3c(N)ncnc32)cc(Cl)c(C#N)c1C1CN(C[C@@H](C)O)C1 (some centres not stated) | ≤ 0.01 µM |
| COc1c(C(C)n2cc(-c3cn[nH]c3)c(=O)c3c(N)ncnc32)cc(Cl)c(C)c1-c1ccc(C(=O)N(C)C)nc1 (configuration not stated) | ≤ 0.01 µM |
| CCOc1c(C(C)n2nc(C)c3c(N)ncnc32)cc(Cl)c(C#N)c1C1CN(C(C)(C)C(=O)OC(C)(C)C)C1 (configuration not stated) | ≤ 0.01 µM |
| COc1c(C(C)n2nc(C)c3c(N)ncnc32)cc(Cl)c(C#N)c1C1CN(C(=O)C(C)C)C1 (configuration not stated) | ≤ 0.01 µM |
| CCOc1c(C(C)n2nc(C)c3c(N)ncnc32)cc(Cl)c(F)c1C1CN(CCO)C1 (configuration not stated) | ≤ 0.01 µM |
| CCOc1c(C(C)n2nc(C(F)F)c3c(N)ncnc32)cc(Cl)c(F)c1C1CN(CCO)C1 (configuration not stated) | ≤ 0.01 µM |
| CCOc1c(C(C)n2nc(CF)c3c(N)ncnc32)cc(Cl)c(C)c1-c1ccc(C(=O)N(C)C)nc1 (configuration not stated) | ≤ 0.01 µM |
| CCOc1c(C(C)n2nc(C)c3c(N)ncnc32)cc(Cl)c(C)c1C#N (configuration not stated) | ≤ 0.01 µM |
| COc1c(C(C)n2nc(C(F)F)c3c(N)ncnc32)cc(Cl)c(F)c1C1CN(C(C)C)C1 (configuration not stated) | ≤ 0.01 µM |
| COc1c(C(C)n2nc(C)c3c(N)ncnc32)cc(Cl)c(C)c1-c1ccc(N(C)C)nc1 (configuration not stated) | ≤ 0.01 µM |
| CCOc1c(C(C)n2nc(C)c3c(N)ncnc32)cc(C)c(C#N)c1-c1ccc(C(=O)N(C)C)nc1 (configuration not stated) | ≤ 0.01 µM |
| CCOc1c(C(C)n2nc(C)c3c(N)ncnc32)cc(Cl)c(C#N)c1C1CN(C(C)(C)C(=O)N(C)C)C1 (configuration not stated) | ≤ 0.01 µM |
| CCOc1c(C(C)n2nc(C)c3c(N)ncnc32)cc(Cl)c(C#N)c1C1CN(C2CCC2)C1 (configuration not stated) | ≤ 0.01 µM |
| COc1c(C(C)n2cc(C)c3c(N)ncnc32)cc(Cl)c(C)c1-c1ccc(C(=O)N(C)C)nc1 (configuration not stated) | ≤ 0.01 µM |
| COc1c(C(C)n2nc(C)c3c(N)ncnc32)cc(Cl)c(C#N)c1C1CN(C(=O)C2CC2)C1 (configuration not stated) | ≤ 0.01 µM |
| COc1c(C(C)n2nc(C)c3c(N)ncnc32)cc(Cl)c(C#N)c1C1CN(C2COC2)C1 (configuration not stated) | ≤ 0.01 µM |
| COc1c(C(C)n2nc(C)c3c(N)ncnc32)cc(Cl)c(C)c1-c1cnn(CCO)c1 (configuration not stated) | ≤ 0.01 µM |
| CCOc1c(C(C)n2nc(C)c3c(N)ncnc32)cc(C)c(C#N)c1C1CN(CCO)C1 (configuration not stated) | ≤ 0.01 µM |
